# ChEMBL document CHEMBL1201862, “PubChem BioAssay data set” (2004)
#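 Five concentrations, 48 hours, 96-well plates. Abbreviation: GI50, concentration required for 50% inhibition of growth.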 Active and inactive are the calls of the source. Cut-off read from the data, not from the text of the source: active = GI50 up to about 1.1 µM and inactive = higher.
# Key:
# Experiment in all cases: NCI-60 cell line screen, 48 h
# CCRF-CEM = test system: CCRF-CEM
# K562 = test system: K562
# OVCAR-8 = test system: OVCAR-8
# SK-MEL-5 = test system: SK-MEL-5
# SF-295 = test system: SF-295
# TK-10 = test system: TK-10
# 786-0 = test system: 786-0
# SNB-75 = test system: SNB-75
# A549 = test system: A549
# SK-MEL-28 = test system: SK-MEL-28
# T47D = test system: T47D
# NCI-H522 = test system: NCI-H522
# SN12C = test system: SN12C
# PC-3 = test system: PC-3
# MDA-MB-435 = test system: MDA-MB-435
# M14 = test system: M14
# U-251 = test system: U-251
# DU-145 = test system: DU-145
# OVCAR-3 = test system: OVCAR-3
# HOP-62 = test system: HOP-62
# HL-60 = test system: HL-60
# SF-539 = test system: SF-539
# MCF7 = test system: MCF7
# OVCAR-5 = test system: OVCAR-5
# SNB-19 = test system: SNB-19
# UACC-257 = test system: UACC-257
# SF-268 = test system: SF-268
# SK-MEL-2 = test system: SK-MEL-2
# HT-29 = test system: HT-29
# IGROV-1 = test system: IGROV-1
# HCC 2998 = test system: HCC 2998
# A498 = test system: A498
# MDA-MB-231 = test system: MDA-MB-231
# SR = test system: SR
# LOX IMVI = test system: LOX IMVI
# EKVX = test system: EKVX
# NCI-H23 = test system: NCI-H23
# HOP-92 = test system: HOP-92
# NCI-H226 = test system: NCI-H226
# MDA-N = test system: MDA-N
# UACC-62 = test system: UACC-62
# CAKI-1 = test system: CAKI-1
# SW-620 = test system: SW-620
# COLO 205 = test system: COLO 205
# NCI/ADR-RES = test system: NCI/ADR-RES
# UO-31 = test system: UO-31
# OVCAR-4 = test system: OVCAR-4
# KM12 = test system: KM12
# Hs-578T = test system: Hs-578T
# HCT-15 = test system: HCT-15
# RPMI-8226 = test system: RPMI-8226
# MOLT-4 = test system: MOLT-4
# NCI-H460 = test system: NCI-H460
# ACHN = test system: ACHN
# SK-OV-3 = test system: SK-OV-3
# BT-549 = test system: BT-549
# HCT-116 = test system: HCT-116
# Malme-3M = test system: Malme-3M
# RXF 393 = test system: RXF 393
smiles,measurement,setting,value
COc1cc2c(c(O)c1OC)C(=O)[C@@H]1CCC(=O)N1C2,GI50,CCRF-CEM,> 100 µM (inactive)
same,GI50,K562,> 100 µM (inactive)
same,GI50,OVCAR-8,> 100 µM (inactive)
same,GI50,SK-MEL-5,> 100 µM (inactive)
same,GI50,SF-295,> 100 µM (inactive)
same,GI50,TK-10,> 100 µM (inactive)
same,GI50,786-0,> 100 µM (inactive)
same,GI50,SNB-75,> 100 µM (inactive)
same,GI50,A549,> 100 µM (inactive)
same,GI50,SK-MEL-28,> 100 µM (inactive)
same,GI50,T47D,> 100 µM (inactive)
same,GI50,NCI-H522,> 100 µM (inactive)
same,GI50,SN12C,> 100 µM (inactive)
same,GI50,PC-3,> 100 µM (inactive)
same,GI50,MDA-MB-435,> 100 µM (inactive)
same,GI50,M14,> 100 µM (inactive)
same,GI50,U-251,> 100 µM (inactive)
same,GI50,DU-145,> 100 µM (inactive)
same,GI50,OVCAR-3,> 100 µM (inactive)
same,GI50,HOP-62,> 100 µM (inactive)
same,GI50,HL-60,> 100 µM (inactive)
same,GI50,SF-539,> 100 µM (inactive)
same,GI50,MCF7,> 100 µM (inactive)
same,GI50,OVCAR-5,> 100 µM (inactive)
same,GI50,SNB-19,> 100 µM (inactive)
same,GI50,UACC-257,> 100 µM (inactive)
same,GI50,SF-268,> 100 µM (inactive)
same,GI50,SK-MEL-2,> 100 µM (inactive)
same,GI50,HT-29,> 100 µM (inactive)
same,GI50,IGROV-1,> 100 µM (inactive)
same,GI50,HCC 2998,> 100 µM (inactive)
same,GI50,A498,> 100 µM (inactive)
same,GI50,MDA-MB-231,> 100 µM (inactive)
same,GI50,SR,> 100 µM (inactive)
same,GI50,LOX IMVI,> 100 µM (inactive)
same,GI50,EKVX,> 100 µM (inactive)
same,GI50,NCI-H23,> 100 µM (inactive)
same,GI50,HOP-92,71 µM (inactive)
same,GI50,NCI-H226,> 100 µM (inactive)
same,GI50,MDA-N,> 100 µM (inactive)
same,GI50,UACC-62,> 100 µM (inactive)
same,GI50,CAKI-1,> 100 µM (inactive)
same,GI50,SW-620,> 100 µM (inactive)
same,GI50,COLO 205,> 100 µM (inactive)
same,GI50,NCI/ADR-RES,> 100 µM (inactive)
same,GI50,UO-31,> 100 µM (inactive)
same,GI50,OVCAR-4,> 100 µM (inactive)
same,GI50,KM12,> 100 µM (inactive)
same,GI50,Hs-578T,> 100 µM (inactive)
same,GI50,HCT-15,> 100 µM
same,GI50,RPMI-8226,> 100 µM (inactive)
same,GI50,MOLT-4,> 100 µM (inactive)
same,GI50,NCI-H460,> 100 µM (inactive)
same,GI50,ACHN,> 100 µM (inactive)
same,GI50,SK-OV-3,> 100 µM (inactive)
same,GI50,BT-549,> 100 µM (inactive)
same,GI50,HCT-116,> 100 µM (inactive)
same,GI50,Malme-3M,> 100 µM (inactive)
O=C1COc2ccc([N+](=O)[O-])cc2C(=O)C1,GI50,CCRF-CEM,> 10 µM (inactive)
same,GI50,K562,> 10 µM (inactive)
same,GI50,RXF 393,> 10 µM (inactive)
same,GI50,OVCAR-8,> 10 µM (inactive)
same,GI50,SK-MEL-5,> 10 µM (inactive)
same,GI50,SF-295,> 10 µM (inactive)
same,GI50,TK-10,> 10 µM (inactive)
same,GI50,786-0,> 10 µM (inactive)
same,GI50,A549,> 10 µM (inactive)
same,GI50,SK-MEL-28,> 10 µM (inactive)
same,GI50,T47D,> 10 µM (inactive)
same,GI50,SN12C,> 10 µM (inactive)
same,GI50,PC-3,> 10 µM (inactive)
same,GI50,MDA-MB-435,> 10 µM (inactive)
same,GI50,M14,> 10 µM (inactive)
same,GI50,U-251,> 10 µM (inactive)
same,GI50,DU-145,> 10 µM (inactive)
same,GI50,OVCAR-3,> 10 µM (inactive)
same,GI50,HOP-62,> 10 µM (inactive)
same,GI50,HL-60,> 10 µM (inactive)
same,GI50,SF-539,> 10 µM (inactive)
same,GI50,MCF7,> 10 µM (inactive)
same,GI50,OVCAR-5,> 10 µM (inactive)
same,GI50,SNB-19,> 10 µM (inactive)
same,GI50,UACC-257,> 10 µM (inactive)
same,GI50,SF-268,> 10 µM (inactive)
same,GI50,SK-MEL-2,> 10 µM (inactive)
same,GI50,HT-29,> 10 µM (inactive)
same,GI50,IGROV-1,> 10 µM (inactive)
same,GI50,HCC 2998,> 10 µM (inactive)
same,GI50,A498,> 10 µM (inactive)
same,GI50,MDA-MB-231,> 10 µM (inactive)
same,GI50,SR,> 10 µM (inactive)
same,GI50,LOX IMVI,> 10 µM (inactive)
same,GI50,EKVX,> 10 µM (inactive)
same,GI50,NCI-H23,> 10 µM (inactive)
same,GI50,HOP-92,0.001 µM (active)
same,GI50,NCI-H226,> 10 µM (inactive)
same,GI50,MDA-N,> 10 µM (inactive)
same,GI50,UACC-62,> 10 µM (inactive)
same,GI50,CAKI-1,> 10 µM (inactive)
same,GI50,SW-620,> 10 µM (inactive)
same,GI50,COLO 205,> 10 µM (inactive)
same,GI50,NCI/ADR-RES,> 10 µM (inactive)
same,GI50,UO-31,> 10 µM (inactive)
same,GI50,OVCAR-4,> 10 µM (inactive)
same,GI50,KM12,> 10 µM (inactive)
same,GI50,Hs-578T,> 10 µM (inactive)
same,GI50,HCT-15,> 10 µM
same,GI50,RPMI-8226,> 10 µM (inactive)
same,GI50,MOLT-4,> 10 µM (inactive)
same,GI50,NCI-H460,> 10 µM (inactive)
same,GI50,ACHN,> 10 µM (inactive)
same,GI50,SK-OV-3,> 10 µM (inactive)
same,GI50,BT-549,> 10 µM (inactive)
same,GI50,HCT-116,> 10 µM (inactive)
same,GI50,Malme-3M,> 10 µM (inactive)
COC(OC)C1OCC(n2cc(F)c(=O)[nH]c2=O)C1O (stereo not drawn),GI50,CCRF-CEM,> 100 µM (inactive)
same,GI50,K562,> 100 µM (inactive)
same,GI50,RXF 393,42.9 µM (inactive)
same,GI50,OVCAR-8,> 100 µM (inactive)
same,GI50,SK-MEL-5,> 100 µM (inactive)
same,GI50,SF-295,> 100 µM (inactive)
same,GI50,TK-10,> 100 µM (inactive)
same,GI50,786-0,> 100 µM (inactive)
same,GI50,SNB-75,> 100 µM (inactive)
same,GI50,A549,> 100 µM (inactive)
same,GI50,SK-MEL-28,> 100 µM (inactive)
same,GI50,T47D,> 100 µM (inactive)
same,GI50,NCI-H522,> 100 µM (inactive)
same,GI50,SN12C,> 100 µM (inactive)
same,GI50,PC-3,> 100 µM (inactive)
same,GI50,MDA-MB-435,> 100 µM (inactive)
same,GI50,M14,> 100 µM (inactive)
same,GI50,U-251,> 100 µM (inactive)
same,GI50,DU-145,> 100 µM (inactive)
same,GI50,OVCAR-3,> 100 µM (inactive)
same,GI50,HOP-62,> 100 µM (inactive)
same,GI50,SF-539,> 100 µM (inactive)
same,GI50,MCF7,> 100 µM (inactive)
same,GI50,OVCAR-5,> 100 µM (inactive)
same,GI50,SNB-19,> 100 µM (inactive)
same,GI50,UACC-257,> 100 µM (inactive)
same,GI50,SF-268,> 100 µM (inactive)
same,GI50,SK-MEL-2,> 100 µM (inactive)
same,GI50,HT-29,> 100 µM (inactive)
same,GI50,IGROV-1,> 100 µM (inactive)
same,GI50,HCC 2998,> 100 µM (inactive)
same,GI50,A498,> 100 µM (inactive)
same,GI50,MDA-MB-231,> 100 µM (inactive)
same,GI50,SR,> 100 µM (inactive)
same,GI50,LOX IMVI,> 100 µM (inactive)
same,GI50,EKVX,> 100 µM (inactive)
same,GI50,NCI-H23,> 100 µM (inactive)
same,GI50,HOP-92,> 100 µM (inactive)
same,GI50,NCI-H226,> 100 µM (inactive)
same,GI50,MDA-N,> 100 µM (inactive)
same,GI50,UACC-62,> 100 µM (inactive)
same,GI50,CAKI-1,> 100 µM (inactive)
same,GI50,SW-620,> 100 µM (inactive)
same,GI50,COLO 205,> 100 µM (inactive)
same,GI50,NCI/ADR-RES,> 100 µM (inactive)
same,GI50,UO-31,> 100 µM (inactive)
same,GI50,OVCAR-4,> 100 µM (inactive)
same,GI50,KM12,> 100 µM (inactive)
same,GI50,Hs-578T,> 100 µM (inactive)
same,GI50,HCT-15,> 100 µM
same,GI50,RPMI-8226,> 100 µM (inactive)
same,GI50,MOLT-4,> 100 µM (inactive)
same,GI50,NCI-H460,> 100 µM (inactive)
same,GI50,ACHN,> 100 µM (inactive)
same,GI50,SK-OV-3,> 100 µM (inactive)
same,GI50,BT-549,> 100 µM (inactive)
same,GI50,HCT-116,> 100 µM (inactive)
same,GI50,Malme-3M,> 100 µM (inactive)
